Data from patent US6849634B2, “Potassium channel inhibitors” (ICAgen, priority 2000, dated 2005).

Molecular target: T1, Kv1.5 (Homo sapiens, UniProt P22460)
T1 construct: expressed in transfected cells; host or cells: CHO cells
Assay: Kv1.5 inhibition by patch clamp technique
Format: cell-based
Conditions: inhibitors of Kv1.5
From the text: The pharmacological profile of the potassium channel inhibitory activity of the compounds of the present invention can be readily assessed by those skilled in the art using routine experimentation, such as the procedures and techniques illustrated in the examples which follow. Assays for assessing the activity of particular compounds may employ cells stably transfected to express a specific potassium channel, as well as native mammalian cells. In particular, stable transfected cells, transfected to express a specific potassium channel, which have been treated with a voltage dependent fluorescent dye, such as bis-(1,3-dibutylbarbituric acid) trimethine oxonol, can be used to gauge the inhibitory activity of potassium channel inhibitor compounds, possibly in comparison to known inhibitors. Alternatively, such cells can be primed with a detectible species, such as 86Rb, and then challenged with a particular compound, under conditions otherwise suitable for activating the potassium channel, to assess the potassium inhibitory activity of the compound. The potassium channel inhibitory activity of a compound also can be determined using isolated mammalian cells and the whole cell configuration of the known patch clamp technique (Hamill et al., Pflugers Archiv 391:85, 1981). These and other known techniques can be readily employed by those skilled in the art to assess the activity level of the potassium channel inhibitor compounds of the present invention.
The cloning, construction and testing of CHO cells that express human voltage-gate potassium channels are described in prior U.S. patent application Ser. No. 08/893,160 (published as WO 98/04521, see also U.S. Pat. No. 6,083,986), as are assays for measuring ^86rubidium efflux from cell monolayers; fluorescence measurement of cell membrane potential; electrophysiological studies and lymphocyte proliferation studies, all of which are incorporated herein by reference.
The efficacy of various compounds of the present invention as inhibitors of Kv1.5 are shown in Table 2 (using the known patch clamp techniques cited above and described in detail in WO 98/04521 (see also U.S. Pat. No. 6,083,986), the disclosure of which is incorporated herein by reference)

T1 sequence (P22460 whole entry): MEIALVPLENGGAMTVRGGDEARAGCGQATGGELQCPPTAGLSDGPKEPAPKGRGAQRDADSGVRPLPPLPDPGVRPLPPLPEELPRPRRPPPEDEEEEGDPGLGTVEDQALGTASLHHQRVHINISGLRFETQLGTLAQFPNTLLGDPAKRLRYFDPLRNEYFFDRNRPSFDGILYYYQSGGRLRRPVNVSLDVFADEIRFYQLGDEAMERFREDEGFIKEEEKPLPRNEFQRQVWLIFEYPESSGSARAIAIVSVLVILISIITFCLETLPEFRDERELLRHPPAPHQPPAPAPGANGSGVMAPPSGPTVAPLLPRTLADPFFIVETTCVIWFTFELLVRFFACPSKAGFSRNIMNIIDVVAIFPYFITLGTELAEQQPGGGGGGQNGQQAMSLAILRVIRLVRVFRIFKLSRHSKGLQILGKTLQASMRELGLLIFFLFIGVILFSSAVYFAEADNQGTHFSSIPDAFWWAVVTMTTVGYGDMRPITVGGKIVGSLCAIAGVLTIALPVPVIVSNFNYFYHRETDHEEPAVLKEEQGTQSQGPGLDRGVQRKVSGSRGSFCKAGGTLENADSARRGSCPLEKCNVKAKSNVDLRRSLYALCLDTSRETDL

Q: Which inhibition at 0.1 µM does the source give for `CCc1ccc(S(=O)(=O)NC2CCc3ccc(Nc4ncccc4NC(=O)CCc4ccccc4)cc32)cc1` (stereo not shown) [Compound 1] here?
A: The inhibition at 0.1 µM was 46%.

Q: With `C=CCNC(=O)c1cccnc1Nc1ccc2c(c1)C(NS(=O)(=O)c1ccc(CC)cc1)CC2` (stereo not shown) [Compound 26] as the compound, how does the inhibition at 0.1 µM read?
A: Its inhibition at 0.1 µM is 38%.

Q: With `C#CCNC(=O)c1cccnc1Nc1ccc2c(c1)C(NS(=O)(=O)c1ccc(CC)cc1)CC2` (stereo not shown) [Compound 27] as the compound, how does the inhibition at 0.1 µM read?
A: The inhibition at 0.1 µM was 43%.

Q: With `CCCNC(=O)c1cccnc1Nc1ccc2c(c1)C(NS(=O)(=O)c1ccc(CC)cc1)CC2` (stereo not shown) [Compound 37] as the compound, how does the inhibition at 0.1 µM read?
A: Its inhibition at 0.1 µM is 35%.

Q: With `CCc1ccc(S(=O)(=O)NC2CCc3ccc(Nc4ncccc4C(=O)NCc4ccco4)cc32)cc1` (stereo not shown) [Compound 42] as the compound, how does the inhibition at 0.1 µM read?
A: The inhibition at 0.1 µM was 45%.

Q: With `O=C(NCCc1ccccc1)c1cccnc1Nc1ccc2c(c1)C(NS(=O)(=O)c1ccc(F)cc1)CC2` (stereo not shown) [Compound 58] as the compound, how does the inhibition at 0.1 µM read?
A: Its inhibition at 0.1 µM is 27%.

Q: `O=C(NCc1cccs1)c1cccnc1Nc1ccc2c(c1)C(NS(=O)(=O)c1ccc(F)cc1)CC2` (stereo not shown) [Compound 59] was tested. Which inhibition at 0.1 µM did it give?
A: Its inhibition at 0.1 µM is 20%.
